In patent publication US9850206B2, “S1P and/or ATX modulating agents” (BIOGEN MA INC., priority 2012, dated 2017):
Like-named read-outs stand apart in the source and are kept apart here. Blank lines part the entries; values can stand above or below the compound they belong to.

Key:
[1] = target: S1P1 (Homo sapiens, UniProt P21453); experiment: S1P receptor activity assay (calcium flux, FLIPR TETRA), S1P1; format: cell-based
Text: (§1) Agonist percentage activation determinations were obtained by assaying sample compounds and referencing the Emax control for each receptor profiled. Antagonist percentage inhibition determinations were obtained by assaying sample compounds and referencing the control EC80 wells for each receptor profiled. The samples were run using a “Single Addition” assay protocol for the agonist and antagonist assay run. The protocol design was as follows:
(§2) Master stock solution: Unless specified otherwise, all sample compounds were diluted in 100% anhydrous DMSO including all serial dilutions. All control wells contained identical solvent final concentrations as did the sample compound wells.
(§3) Compound plate for assay: The sample compounds were transferred from a master stock solution into a daughter plate that was used in the assay. Each sample compound was diluted into assay buffer (1×HBSS with 20 mM HEPES and 2.5 mM Probenecid) at an appropriate concentration to obtain final concentrations.
(§4) Sample compounds were plated in an eight-point, four-fold dilution series in duplicate with a top concentration of 10 μM. The concentrations described here reflect the final concentration of the compounds during the antagonist assay.
(§5) Reference agonists were handled as mentioned above serving as assay control. The reference agonists were handled as described above for Emax.
(§6) Assay was read for 180 seconds using the […] (This assay run added sample compounds and reference agonist to respective wells). At the completion of the first “Single Addition” assay run, assay plate was removed from the […] and placed at 25° C. for seven (7) minutes.
(§7) Using the EC80 values determined during the agonist assay, stimulated all pre-incubated sample compound and reference antagonist (if applicable) wells with EC80 of reference agonist. Read for 180 seconds using the […] (This assay added reference agonist to respective wells—then fluorescence measurements were collected to calculate percentage inhibition values).
(§8) All plates were subjected to appropriate baseline corrections. Once baseline corrections were processed, maximum fluorescence values were exported and data manipulated to calculate percentage activation, percentage inhibition and Z′.

[2] = target: T1, S1P4 (Homo sapiens, UniProt O95977); experiment: S1P receptor activity assay (calcium flux, FLIPR TETRA), S1P4; format: cell-based
T1 sequence (O95977 1-384): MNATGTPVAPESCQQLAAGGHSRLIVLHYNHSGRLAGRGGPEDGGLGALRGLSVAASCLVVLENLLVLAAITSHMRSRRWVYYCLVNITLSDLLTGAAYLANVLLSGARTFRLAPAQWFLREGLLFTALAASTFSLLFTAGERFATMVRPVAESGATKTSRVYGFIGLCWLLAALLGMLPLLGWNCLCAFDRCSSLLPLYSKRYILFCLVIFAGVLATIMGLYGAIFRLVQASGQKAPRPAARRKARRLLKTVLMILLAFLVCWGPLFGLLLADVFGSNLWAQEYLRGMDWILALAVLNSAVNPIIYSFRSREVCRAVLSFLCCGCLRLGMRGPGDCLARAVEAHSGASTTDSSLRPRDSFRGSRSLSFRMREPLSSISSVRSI
Text: as §1, §2, §3, §4, §5, §6, §7, §8

[3] = target: T2, Human ATX protein (Homo sapiens, UniProt Q13822); experiment: Autotaxin (ATX) FRET assay with FS-3 substrate; format: biochemical
T2 construct: made in house
Text: ATX (Autotaxin) is a 125 KDa glycoprotein with lysophospholipase D (LPLD) activity that generates the bioactive lipid lysophosphatidic acid (LPA) from lysophosphatidylcholine (LPC). The ATX biochemical assay utilizes a FRET (fluorescence resonance energy transfer) technology platform. […] ATX catalyzes the hydrolysis of the substrate which separates the dabsyl quencher from the fluorescein reporter, which becomes fluorescent. The reaction is monitored by a SpectraMax M5 (Molecular Devices, Sunnyvale, Calif.) with at excitation wavelength 485 nm and emission wavelength 535 nm.
Fatty acid free-BSA (Sigma A8806): 10 mg/mL in H2O, stored at 4° C.
2×ATX assay buffer: 100 mM Tris, 280 mM NaCl, 10 mM KCl, 2 mM CaCl2, 2 mM MgCl2, pH 7.4.
Human ATX protein: expressed and purified in house. Stored at −80° C.
Substrate FS-3 (Echelon, L-2000): 100 μg in 77.74 μL H2O (1 mM stock), stored at −20° C.
Compound dilution—All compounds were provided at 10 mM in 100% DMSO. In the first well, 2 μL of 10 mM compound was added to 78 μL of DMSO (1:40 dilution). In subsequent wells 3-fold dilution (total 10 dilutions) were performed.
1×ATX assay buffer was made up with a final concentration of 1 mg/mL fatty acid free-BSA using 2×ATX assay buffer, 10 mg/ml fatty acid free-BSA and ddH2O.
38 μL was added per well to the assay plate. The final concentration of ATX in the reaction as 1.0 μg/mL.
2 μL per well of compounds was transferred to provide the desired concentration. The plate was centrifuged, then incubated at room temperature for 30 minutes on the shaker.
FS-3 was diluted with 1×ATX assay buffer to a concentration of FS-3 of 10 μM (5×). Then, 10 μL was added per well to the assay plate. The final concentration of FS-3 in the reaction was 2 μM. The plate was centrifuged. The plate was kept shaking at room temperature for 2 hours. Because FS-3 substrate is light sensitive, plates were kept covered and protected from light.

[4] = target: S1P5 (Homo sapiens, UniProt Q9H228); experiment: S1P receptor activity assay (calcium flux, FLIPR TETRA), S1P5; format: cell-based
Text: as §1, §2, §3, §4, §5, §6, §7, §8

[5] = calcium flux, top concentration 10 μM, the >5 μM sentence says only 'for S1P1', read-out: IC50 for S1P1 agonist activity
[6] = calcium flux, top concentration 10 μM, the >5 μM sentence says only 'for S1P4', read-out: IC50 for S1P4 agonist activity
[7] = FS-3 2 μM, ATX 1.0 μg/mL, 2 hours at room temperature, read-out: IC50 (ATX)
[8] = calcium flux, top concentration 10 μM, read-out: IC50 for S1P5

Sequence of S1P1 (P21453 whole entry): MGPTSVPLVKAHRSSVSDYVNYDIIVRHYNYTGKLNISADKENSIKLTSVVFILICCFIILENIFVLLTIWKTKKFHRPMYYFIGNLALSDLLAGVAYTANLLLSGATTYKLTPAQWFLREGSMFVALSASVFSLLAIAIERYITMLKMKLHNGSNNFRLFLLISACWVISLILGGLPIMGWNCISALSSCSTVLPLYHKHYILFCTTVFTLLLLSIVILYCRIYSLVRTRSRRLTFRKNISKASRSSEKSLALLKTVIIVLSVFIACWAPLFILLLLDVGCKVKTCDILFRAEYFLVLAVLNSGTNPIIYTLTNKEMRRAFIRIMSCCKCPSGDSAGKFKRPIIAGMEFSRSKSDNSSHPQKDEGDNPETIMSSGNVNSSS
Sequence of S1P5 (Q9H228 whole entry): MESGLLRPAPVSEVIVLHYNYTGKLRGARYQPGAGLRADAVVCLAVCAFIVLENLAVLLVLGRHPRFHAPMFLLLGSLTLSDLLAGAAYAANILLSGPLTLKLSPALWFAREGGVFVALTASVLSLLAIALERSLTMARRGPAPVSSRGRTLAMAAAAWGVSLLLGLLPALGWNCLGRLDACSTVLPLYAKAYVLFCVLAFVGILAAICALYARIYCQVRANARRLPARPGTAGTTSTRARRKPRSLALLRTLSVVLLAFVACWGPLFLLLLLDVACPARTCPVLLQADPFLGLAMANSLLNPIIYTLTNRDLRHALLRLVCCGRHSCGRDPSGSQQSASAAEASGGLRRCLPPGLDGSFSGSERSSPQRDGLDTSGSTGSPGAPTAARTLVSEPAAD

Compound: CC(C)(C)[C@H]1CC[C@H](Oc2ccc(NC3CCCN(CCC(=O)O)C3)cc2)CC1 (relative stereo) [Example 13, 3-(3-((4-((trans-4-(tert-Butyl)cyclohexyl)oxy)phenyl)amino)piperidin-1-yl)propanoic acid]
IC50 [1, 5]: > 5 µM | IC50 [2, 6]: 2 to 5 µM | IC50 [3, 7]: > 10 µM

Compound: CC(C)(C)[C@H]1CC[C@@H](Oc2ccc(C3CCCN(CCCC(=O)O)C3)cc2)CC1 (stereo in doubt) [Example 4, 4-(3-(4-(cis-4-tert-Butylcyclohexyloxy)phenyl)piperidin-1-yl)butanoic acid]
IC50 [1, 5]: > 5 µM | IC50 [2, 6]: > 5 µM | IC50 [4, 8]: > 5 µM | IC50 [3, 7]: 5 to 10 µM

Compound: CCCCCCCCOc1ccc(C2CCCN(CCC(=O)O)C2)cc1 (centres unmarked) [Example 1, 3-(3-(4-(Octyloxy)phenyl)piperidin-1-yl)propanoic acid]
IC50 [1, 5]: > 5 µM | IC50 [2, 6]: > 5 µM | IC50 [4, 8]: > 5 µM

Compound: CC(C)(C)[C@H]1CC[C@H](Oc2ccc(C3CCCN(CCC(=O)O)C3)cc2)CC1 (stereo partly drawn) [Example 3, 3-(3-(4-(trans-4-tert-Butylcyclohexyloxy)phenyl)piperidin-1-yl)propanoic acid]
IC50 [3, 7]: 5 to 10 µM

Compound: CCCCCCCCOc1ccc(C2CCCC(N3CCC(C(=O)O)CC3)C2)cc1 (centres unmarked) [Example 9, 1-(3-(4-(octyloxy)phenyl)cyclohexyl)piperidine-4-carboxylic acid]
IC50 [1, 5]: > 5 µM | IC50 [2, 6]: > 5 µM | IC50 [4, 8]: > 5 µM | IC50 [3, 7]: > 10 µM

Compound: CC(C)(C)[C@H]1CC[C@H](Oc2ccc(C3CCCC(N4CCC(C(=O)O)CC4)C3)cc2)CC1 (stereo partly drawn) [Example 10, 1-(3-(4-(trans-4-tert-butylcyclohexyloxy)phenyl)cyclohexyl)piperidine-4-carboxylic acid]
IC50 [1, 5]: > 5 µM | IC50 [2, 6]: > 5 µM | IC50 [4, 8]: > 5 µM | IC50 [3, 7]: > 10 µM

Compound: CCCCCCCCOc1ccc(NC2CCCN(CCC(=O)O)C2)nc1 (centres unmarked) [Example 11, 3-(3-(5-(Octyloxy)pyridin-2-ylamino)piperidin-1-yl)propanoic acid]
IC50 [1, 5]: > 5 µM | IC50 [2, 6]: > 5 µM | IC50 [3, 7]: 5 to 10 µM

Compound: CCCCCCCCOc1ccc(N2CCN(CCCC(=O)O)CC2)cc1 [Example 15, 4-(4-(4-(Octyloxy)phenyl)piperazin-1-yl)butanoic acid]
IC50 [1]: > 5 µM | IC50 [2]: ≤ 2 µM | IC50 [4]: > 5 µM | IC50 [3]: > 10 µM

Compound: CC(C)(C)[C@H]1CC[C@H](Oc2ccc(N3CCN(CCC(=O)O)CC3)cc2)CC1 [Example 17, 3-(4-(4-((trans-4-(tert-Butyl)cyclohexyl)oxy)phenyl)piperazin-1-yl)propanoic acid]
IC50 [1, 5]: > 5 µM | IC50 [2, 6]: 2 to 5 µM | IC50 [4, 8]: > 5 µM | IC50 [3, 7]: > 10 µM

Compound: CC(C)(C)[C@H]1CC[C@H](Oc2ccc(N3CCN(CCCC(=O)O)CC3)cc2)CC1 [Example 18, 4-(4-(4-((trans-4-(tert-Butyl)cyclohexyl)oxy)phenyl)piperazin-1-yl)butanoic acid]
IC50 [1, 5]: > 5 µM | IC50 [2, 6]: 2 to 5 µM | IC50 [4, 8]: > 5 µM | IC50 [3, 7]: > 10 µM

Compound: CCCCCCCCOc1ccc(N2CCN(CCC(=O)O)CC2)nc1 [Example 22, 3-(4-(5-(Octyloxy)pyridin-2-yl)piperazin-1-yl)propanoic acid]
IC50 [1, 5]: > 5 µM | IC50 [2, 6]: > 5 µM | IC50 [4, 8]: > 5 µM

Compound: CC(C)(C)[C@H]1CC[C@H](Oc2ccc(C3CCCN(C4CCC(C(=O)O)CC4)C3)cc2)CC1 (stereo partly drawn) [Example 25, 4-(3-(4-((trans-4-(tert-Butyl)cyclohexyl)oxy)phenyl)piperidin-1-yl)cyclohexanecarboxylic acid]
IC50 [1, 5]: > 5 µM | IC50 [2, 6]: ≤ 2 µM

Compound: CC(C)(C)[C@H]1CC[C@H](Oc2ccc(C3=CCN(CCCCC(=O)O)CC3)cc2)CC1 [Example 49, 5-(4-(4-((trans-4-(tert-Butyl)cyclohexyl)oxy)phenyl)-5,6-dihydropyridin-1(2H)-yl)pentanoic acid]
IC50 [1]: > 5 µM | IC50 [2]: ≤ 2 µM | IC50 [4, 8]: > 5 µM

Compound: CC(C)(C)[C@H]1CC[C@H](Oc2ccc(C3CCN(CCCCC(=O)O)CC3)cc2)CC1 [Example 50, 5-(4-(4-((trans-4-(tert-Butyl)cyclohexyl)oxy)phenyl)piperidin-1-yl)pentanoic acid]
IC50 [1, 5]: > 5 µM | IC50 [2, 6]: ≤ 5 µM | IC50 [4, 8]: > 5 µM

Other lines, results leading:

IC50 [1, 5]: > 5 µM | IC50 [2, 6]: ≤ 2 µM | IC50 [3, 7]: > 10 µM
Compound: CC(C)(C)[C@H]1CC[C@H](Oc2ccc(NC3CCCN(CCC(=O)O)C3)nc2)CC1 (relative stereo) [Example 12, 3-(3-(5-(trans-4-tert-butylcyclohexyloxy)pyridin-2-ylamino)piperidin-1-yl)propanoic acid]

IC50 [1, 5]: > 5 µM | IC50 [2, 6]: ≤ 2 µM | IC50 [4, 8]: > 5 µM
Compound: CCCCCCCCOc1ccc(C2CCCN(CCCC(=O)O)C2)cc1 (centres unmarked) [Example 2, 4-(3-(4-(Octyloxy)phenyl)piperidin-1-yl)butanoic acid]

IC50 [1, 5]: > 5 µM | IC50 [2, 6]: ≤ 2 µM | IC50 [4, 8]: > 5 µM | IC50 [3, 7]: 5 to 10 µM
Compound: CCCCCCCCOc1cccc(C2CCCN(CCC(=O)O)C2)c1 (centres unmarked) [Example 5, 3-(3-(3-(Octyloxy)phenyl)piperidin-1-yl)propanoic acid]

IC50 [1, 5]: > 5 µM | IC50 [2, 6]: ≤ 2 µM | IC50 [4, 8]: > 5 µM | IC50 [3, 7]: 5 to 10 µM
Compound: CCCCCCCCOc1cccc(C2CCCN(CCCC(=O)O)C2)c1 (centres unmarked) [Example 6, 4-(3-(3-(Octyloxy)phenyl)piperidin-1-yl)butanoic acid]

IC50 [2, 6]: ≤ 2 µM | IC50 [4, 8]: > 5 µM | IC50 [3, 7]: 5 to 10 µM
Compound: CC(C)(C)[C@H]1CC[C@H](Oc2cccc(C3CCCN(CCC(=O)O)C3)c2)CC1 (stereo partly drawn) [Example 7, 3-(3-(3-((trans-4-(tert-Butyl)cyclohexyl)oxy)phenyl)piperidin-1-yl)propanoic acid]

IC50 [2, 6]: ≤ 2 µM | IC50 [4, 8]: > 5 µM | IC50 [3, 7]: 5 to 10 µM
Compound: CC(C)(C)[C@H]1CC[C@H](Oc2cccc(C3CCCN(CCCC(=O)O)C3)c2)CC1 (stereo partly drawn) [Example 8, 4-(3-(3-((trans-4-(tert-Butyl)cyclohexyl)oxy)phenyl)piperidin-1-yl)butanoic acid]

IC50 [1, 5]: > 5 µM | IC50 [2, 6]: ≤ 2 µM | IC50 [4, 8]: > 5 µM
Compound: CC(C)(C)[C@H]1CC[C@H](Oc2ccc(C3CCN(CCC(=O)O)C3)cc2)CC1 (stereo partly drawn) [Example 23, 3-(3-(4-((trans-4-(tert-Butyl)cyclohexyl)oxy)phenyl)pyrrolidin-1-yl)propanoic acid]

IC50 [1, 5]: > 5 µM | IC50 [2, 6]: ≤ 2 µM | IC50 [4, 8]: > 5 µM
Compound: CC(C)(C)[C@H]1CC[C@H](Oc2ccc(C3CCN(CCCC(=O)O)C3)cc2)CC1 (stereo partly drawn) [Example 24, 4-(3-(4-((trans-4-(tert-Butyl)cyclohexyl)oxy)phenyl)pyrrolidin-1-yl)butanoic acid]
